Tests used:
barnyardgrass = assay: Test B flood; assay type: in vivo, Echinochloa crus-galli; conditions: 250 g ai/ha, visual rating on 0 to 100 scale (0 no effect, 100 complete control), 13 to 15 days
Summary of the method: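 Each compound is applied to the floodwater of pots holding 2-leaf seedlings, water standing 3 cm over the soil throughout. Plants stay in a greenhouse 13 to 15 days before visual scoring against controls from 0 (no effect) to 100 (complete control).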

oilseed rape = assay: Test C postemergence; assay type: in vivo, Brassica napus
Summary of the method: (§1)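 Scores of 0 (no effect) to 100 (complete control) were assigned by eye after 13–15 days, comparing treated pots with controls. Soil-applied (preemergence) treatments went onto seeds in loam and sand; foliar (postemergence) treatments onto 1- to 4-leaf plants in peat medium.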

nutsedge, yellow = assay: Test C postemergence; assay type: in vivo, Cyperus esculentus
Summary of the method: as §1

foxtail, giant = assay: Test C preemergence; assay type: in vivo, Setaria faberii
Summary of the method: as §1

waterhemp [1] = assay: Test C preemergence; assay type: in vivo, Amaranthus rudis
Summary of the method: as §1

lambsquarters = assay: Test C preemergence; assay type: in vivo, Chenopodium album
Summary of the method: as §1

crabgrass, large = assay: Test C preemergence; assay type: in vivo, Digitaria sanguinalis
Summary of the method: as §1

wheat = assay: Test A postemergence; assay type: in vivo, Triticum aestivum
Summary of the method: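 Greenhouse test in loam soil/sand blend; compounds formulated in non-phytotoxic solvent with surfactant, applied as preemergence directed soil spray or postemergence to plants 2–10 cm tall at one- to two-leaf stage. Injury rated visually versus untreated controls after approximately 10 days on a 0 (no effect) to 100 (complete control) scale.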

waterhemp [2] = assay: Test C postemergence; assay type: in vivo, Amaranthus rudis
Summary of the method: as §1

pigweed = assay: Test C preemergence; assay type: in vivo, Amaranthus retroflexus
Summary of the method: as §1

morningglory [3] = assay: Test C postemergence; assay type: in vivo, Ipomoea coccinea
Summary of the method: as §1

morningglory [4] = assay: Test C preemergence; assay type: in vivo, Ipomoea coccinea
Summary of the method: as §1

velvetleaf = assay: Test C preemergence; assay type: in vivo, Abutilon theophrasti
Summary of the method: as §1

[5] = Postemergence, 31 g ai/ha, visually evaluated after 13 to 15 days
[6] = postemergence, 62 g ai/ha, scale 0 to 100
[7] = postemergence, 250 g ai/ha, scale 0 to 100 (0 no effect, 100 complete control)
[8] = postemergence, 125 g ai/ha, scale 0 to 100, 0 no effect, 100 complete control
[9] = preemergence, 31 g ai/ha, visual rating, scale 0 to 100 (0 no effect, 100 complete control), 13 to 15 days
[10] = preemergence, 62 g ai/ha, 13 to 15 days, scale 0 to 100, 0 = no effect, 100 = complete control
[11] = preemergence, 125 g ai/ha, scale 0 to 100, 0 is no effect, 100 is complete control

In the case of `CCc1cc(C(=O)NC(C)C)nn1Cc1ccnc(C(F)(F)F)c1` [Compound 103], the “Plant response rating, Barnyardgrass” value (barnyardgrass) is reported as 40, the “Plant response rating (scale of 0 to 100 where 0 is no effect and 100 is complete control), Oilseed Rape” value (oilseed rape; [5]) is reported as 5 and the “Oilseed Rape plant response rating” value (oilseed rape; [6]) is reported as 50. For the same compound, the “Plant response rating, Oilseed Rape” value (oilseed rape; [7]) was 70, the “Plant response rating, Oilseed Rape” value (oilseed rape; [8]) was 50 and the “Plant response rating (scale of 0 to 100 where 0 is no effect and 100 is complete control), Nutsedge, Yellow” value (nutsedge, yellow; [5]) was 10. The “Nutsedge, Yellow plant response rating” value (nutsedge, yellow; [6]) was 10, the “Plant response rating, Nutsedge, Yellow” value (nutsedge, yellow; [7]) was 20 and the “Plant response rating, Nutsedge, Yellow” value (nutsedge, yellow; [8]) was 10. The “Plant response rating (scale of 0 to 100), Foxtail, Giant” value (foxtail, giant; Preemergence, 250 g ai/ha) was 100, the “Foxtail, Giant plant response rating” value (foxtail, giant; [9]) was 100 and the “Plant response rating, Foxtail, Giant” value (foxtail, giant; [10]) was 100. The “Foxtail, Giant plant response rating” value (foxtail, giant; [11]) was 100, the “Plant response rating (scale of 0 to 100), Waterhemp” value (waterhemp [1]; Preemergence, 250 g ai/ha) was 100 and the “Waterhemp plant response rating” value (waterhemp [1]; [9]) was 100. The “Plant response rating, Waterhemp” value (waterhemp [1]; [10]) was 100, the “Waterhemp plant response rating” value (waterhemp [1]; [11]) was 100 and the “Plant response rating (scale of 0 to 100), Lambsquarters” value (lambsquarters; Preemergence, 250 g ai/ha) was 100. The “Lambsquarters plant response rating” value (lambsquarters; [9]) was 100, the “Plant response rating, Lambsquarters” value (lambsquarters; [10]) was 100 and the “Lambsquarters plant response rating” value (lambsquarters; [11]) was 100. The “Plant response rating (scale of 0 to 100), Crabgrass, Large” value (crabgrass, large; Preemergence, 250 g ai/ha) was 100, the “Crabgrass, Large plant response rating” value (crabgrass, large; [9]) was 100 and the “Plant response rating, Crabgrass, Large” value (crabgrass, large; [10]) was 100. The “Crabgrass, Large plant response rating” value (crabgrass, large; [11]) was 100, the “Wheat plant response rating” value (wheat; Postemergence, 500 g ai/ha, visual rating after approx. 10 days, 0 to 100 scale (0 no effect, 100 complete control)) was 90 and the “Wheat plant response rating” value (wheat; postemergence, 125 g ai/ha, about 10 days, visual rating on 0 to 100 scale (0 no effect, 100 complete control)) was 80. For the same compound, the “Plant response rating (scale of 0 to 100 where 0 is no effect and 100 is complete control), Waterhemp” value (waterhemp [2]; [5]) was 55, the “Waterhemp plant response rating” value (waterhemp [2]; [6]) was 65 and the “Plant response rating, Waterhemp” value (waterhemp [2]; [7]) was 90. For the same compound, the “Plant response rating, Waterhemp” value (waterhemp [2]; [8]) was 65, the “Plant response rating (scale of 0 to 100), Pigweed” value (pigweed; Preemergence, 250 g ai/ha) was 100 and the “Pigweed plant response rating” value (pigweed; [9]) was 100. The “Plant response rating, Pigweed” value (pigweed; [10]) was 100, the “Pigweed plant response rating” value (pigweed; [11]) was 100 and the “Plant response rating (scale of 0 to 100 where 0 is no effect and 100 is complete control), Morningglory” value (morningglory [3]; [5]) was 75. For the same compound, the “Morningglory plant response rating” value (morningglory [3]; [6]) was 75, the “Plant response rating, Morningglory” value (morningglory [3]; [7]) was 100 and the “Plant response rating, Morningglory” value (morningglory [3]; [8]) was 85. For the same compound, the “Plant response rating (scale of 0 to 100), Morningglory” value (morningglory [4]; Preemergence, 250 g ai/ha) was 100, the “Morningglory plant response rating” value (morningglory [4]; [9]) was 100 and the “Plant response rating, Morningglory” value (morningglory [4]; [10]) was 100. For the same compound, the “Morningglory plant response rating” value (morningglory [4]; [11]) was 100, the “Plant response rating (scale of 0 to 100), Velvetleaf” value (velvetleaf; Preemergence, 250 g ai/ha) was 100 and the “Velvetleaf plant response rating” value (velvetleaf; [9]) was 100. For the same compound, the “Plant response rating, Velvetleaf” value (velvetleaf; [10]) was 100 and the “Velvetleaf plant response rating” value (velvetleaf; [11]) was 100.
